The results in this text go back to ChEMBL document CHEMBL1136898, “Conformational analysis of N,N-disubstituted-1,4-diazepane orexin receptor antagonists and implications for receptor binding” (Bioorg Med Chem Lett, 2009).

The target in assay [1] is T1, Orexin/Hypocretin receptor type 1 (Homo sapiens, UniProt O43613).
T1 sequence (O43613 whole entry): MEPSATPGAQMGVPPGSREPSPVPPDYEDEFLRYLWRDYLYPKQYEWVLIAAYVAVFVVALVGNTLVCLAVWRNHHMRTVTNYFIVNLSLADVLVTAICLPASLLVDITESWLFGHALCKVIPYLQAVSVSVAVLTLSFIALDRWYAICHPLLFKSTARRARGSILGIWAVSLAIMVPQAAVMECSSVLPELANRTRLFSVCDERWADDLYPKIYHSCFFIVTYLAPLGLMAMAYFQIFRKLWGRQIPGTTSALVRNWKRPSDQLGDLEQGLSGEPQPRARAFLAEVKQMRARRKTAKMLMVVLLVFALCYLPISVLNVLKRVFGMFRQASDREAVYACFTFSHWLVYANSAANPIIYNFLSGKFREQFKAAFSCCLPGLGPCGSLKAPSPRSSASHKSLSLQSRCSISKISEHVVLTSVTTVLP
Put plainly: Binding affinity to OX1 receptor.

For another assay, the target named is T2, Orexin receptor type 2 (Homo sapiens, UniProt O43614).
T2 sequence (O43614 whole entry): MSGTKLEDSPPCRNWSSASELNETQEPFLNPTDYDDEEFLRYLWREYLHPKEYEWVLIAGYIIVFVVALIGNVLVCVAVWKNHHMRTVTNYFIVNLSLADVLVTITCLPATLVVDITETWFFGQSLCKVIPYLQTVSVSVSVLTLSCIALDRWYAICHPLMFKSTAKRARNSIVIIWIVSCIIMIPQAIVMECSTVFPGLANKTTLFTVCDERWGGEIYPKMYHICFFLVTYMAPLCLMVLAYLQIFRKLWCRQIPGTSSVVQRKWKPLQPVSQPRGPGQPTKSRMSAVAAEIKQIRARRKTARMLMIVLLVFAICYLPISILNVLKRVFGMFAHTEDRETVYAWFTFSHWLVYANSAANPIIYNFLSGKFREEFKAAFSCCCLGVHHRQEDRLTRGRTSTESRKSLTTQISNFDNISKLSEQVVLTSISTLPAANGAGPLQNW
Put plainly: Binding affinity to OX2 receptor.

Each structure is given as a SMILES string.

For orientation: Ki means the equilibrium dissociation constant of an inhibitor or competing ligand from its target. With `Cc1ccc(-n2nccn2)c(CN2CCCN(c3ncc4ccccc4n3)CC2)c1`, the Ki in assay [1] was found to be 930 nM; on Orexin receptor type 2, 240 nM.
Consider `Cc1ccc(-n2nccn2)c(C(=O)N2CCCN(c3ccc4ccccc4c3)CC2)c1`, for which the inhibitory constant (Ki) (in assay [1]; on Orexin receptor type 2) was 2 nM throughout.
Take `O=C(C1CCCCC1)N1CCCN(c2ncc3ccccc3n2)CC1`: the Ki in assay [1] was determined as 9800 nM; on Orexin receptor type 2, 550 nM.
Regarding `O=C1c2cc(ccc2-n2nccn2)CCCCCCc2ccc3cc(ccc3c2)N2CCCN1CC2`, the Ki in assay [1] worked out at 51 nM; on Orexin receptor type 2 it was 42 nM.
